Read-outs that look alike come from different tables or passages of the source.
Assays:
[1] = biological target: T1, OCT2 (Homo sapiens, UniProt O15244); assay: Inhibition of model substrate uptake in OCT2-overexpressing HEK293 cells; settings: for IC50: IC50 [μM], OCT2, Table 1
T1 sequence (O15244 1-555): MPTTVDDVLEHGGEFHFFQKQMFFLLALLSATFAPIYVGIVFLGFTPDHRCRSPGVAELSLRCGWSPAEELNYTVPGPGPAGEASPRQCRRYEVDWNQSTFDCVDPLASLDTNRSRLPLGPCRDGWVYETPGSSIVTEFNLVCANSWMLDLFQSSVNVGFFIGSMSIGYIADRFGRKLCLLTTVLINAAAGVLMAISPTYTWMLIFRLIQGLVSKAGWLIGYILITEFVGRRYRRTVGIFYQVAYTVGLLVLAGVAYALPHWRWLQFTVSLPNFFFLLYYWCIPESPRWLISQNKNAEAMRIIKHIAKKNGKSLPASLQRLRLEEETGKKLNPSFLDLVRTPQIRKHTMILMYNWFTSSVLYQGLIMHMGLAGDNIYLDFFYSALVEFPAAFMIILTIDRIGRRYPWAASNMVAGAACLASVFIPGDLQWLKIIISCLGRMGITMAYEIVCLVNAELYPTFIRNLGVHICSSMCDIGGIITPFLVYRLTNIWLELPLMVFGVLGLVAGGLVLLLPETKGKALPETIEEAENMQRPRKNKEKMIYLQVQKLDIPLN

[2] = biological target: T2, OCT3 (Homo sapiens, UniProt O75751); assay: Inhibition of model substrate uptake in OCT3-overexpressing HEK293 cells; assay type: cell-based; settings: 20 μM inhibitor, 5 min
T2 construct: expressed in transfected cells; host or cells: HEK293
T2 sequence (O75751 1-556): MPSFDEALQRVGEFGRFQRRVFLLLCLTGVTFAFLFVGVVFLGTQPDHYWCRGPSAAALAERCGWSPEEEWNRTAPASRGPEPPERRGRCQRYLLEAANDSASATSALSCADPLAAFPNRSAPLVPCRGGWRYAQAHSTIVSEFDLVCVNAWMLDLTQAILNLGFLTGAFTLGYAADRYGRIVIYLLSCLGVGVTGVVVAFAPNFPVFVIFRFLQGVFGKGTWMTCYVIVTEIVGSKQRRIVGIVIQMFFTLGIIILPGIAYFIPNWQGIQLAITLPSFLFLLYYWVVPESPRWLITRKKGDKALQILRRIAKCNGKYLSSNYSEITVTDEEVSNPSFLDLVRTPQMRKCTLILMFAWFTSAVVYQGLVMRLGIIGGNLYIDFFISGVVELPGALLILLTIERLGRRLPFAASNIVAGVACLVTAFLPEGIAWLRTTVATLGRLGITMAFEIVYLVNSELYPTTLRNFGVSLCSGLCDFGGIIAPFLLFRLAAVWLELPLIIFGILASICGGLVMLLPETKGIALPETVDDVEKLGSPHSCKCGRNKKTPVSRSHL
Summary of the method: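 Transporter-overexpressing HEK293 cells were incubated 5 min in HBSS+ with 2 μM model substrate, with or without 20 μM inhibitor or increasing inhibitor concentrations. Uptake was read as ASP^+ fluorescence or by LC–MS/MS, with empty-vector uptake subtracted. IC50 came from a Hill fit of activity versus log concentration.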

[3] = biological target: T2, OCT3; assay: Concentration-dependent uptake of model substrates, OCT3-overexpressing HEK293 cells; assay type: in vitro ADME; settings: vmax over Km, this study
Method: (§1) Koepsell and Gorbulev (University of Würzburg, Germany).
(§2) Prior to inhibition studies, the used model substrates were validated in concentration-dependent uptake experiments if no literature data were available (Table S2 and Figures S2 and S3). Thereby, we ensured that the model substrate concentration used in the subsequent inhibition experiments was sufficiently below the Km value of its uptake kinetics. […] On the day of the experiment, the cells were washed once with prewarmed to 37 °C HBSS (Thermo Fisher Scientific, Darmstadt, Germany) supplemented with 10 mM HEPES and pH adjusted to 7.4 (Sigma-Aldrich)—hereafter termed HBSS+. For concentration-dependent experiments, the cells were incubated with increasing substrate concentrations for 2 min. Uptake was terminated by adding ice-cold HBSS+. Afterward, the cells were washed twice with ice-cold HBSS+, and cell lysis was done with 80% (v/v) acetonitrile (LGC Standards, Wesel, Germany) to which an internal standard for eventual LC–MS/MS analysis had been added. Intracellularly accumulated substrates were then quantified by LC–MS/MS analysis, and calibration was performed with known concentrations of the respective substances. All uptake data were normalized to the number of seeded cells by measuring the total protein content in radioimmunoprecipitation assay buffer-lysed cells in a bicinchoninic acid assay.[29]

[4] = biological target: T3, OCT1 (Homo sapiens, UniProt O15245); assay: Inhibition of model substrate uptake in OCT1-overexpressing HEK293 cells; assay type: cell-based; set-up: expressed in transfected cells; host or cells: HEK293; settings: OCT1, 20 μM inhibitor, 5 min; for inhibition at 5 min, 20 μM: human, OCT1-overexpressing HEK293 cells
T3 sequence (O15245 1-554): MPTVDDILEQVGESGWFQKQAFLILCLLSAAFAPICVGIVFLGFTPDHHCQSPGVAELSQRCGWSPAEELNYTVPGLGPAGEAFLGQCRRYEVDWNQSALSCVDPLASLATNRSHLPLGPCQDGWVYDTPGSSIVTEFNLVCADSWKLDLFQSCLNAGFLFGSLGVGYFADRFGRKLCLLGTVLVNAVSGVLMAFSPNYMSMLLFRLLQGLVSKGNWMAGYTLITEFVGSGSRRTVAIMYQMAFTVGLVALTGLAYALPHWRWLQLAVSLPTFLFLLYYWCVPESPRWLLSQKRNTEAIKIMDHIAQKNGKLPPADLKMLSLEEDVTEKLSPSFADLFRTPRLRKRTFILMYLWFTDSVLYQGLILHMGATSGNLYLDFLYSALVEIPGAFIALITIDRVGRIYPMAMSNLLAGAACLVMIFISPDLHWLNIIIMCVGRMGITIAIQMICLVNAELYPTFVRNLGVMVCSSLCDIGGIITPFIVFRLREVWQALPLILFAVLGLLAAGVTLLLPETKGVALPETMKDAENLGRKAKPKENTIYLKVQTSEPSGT
Method: as §1
Fluorescence quantification was performed in technical duplicates.

[5] = biological target: T3, OCT1; assay: Concentration-dependent uptake of model substrates, OCT1-overexpressing HEK293 cells; assay type: in vitro ADME; set-up: expressed in transfected cells; host or cells: HEK293; settings: vmax over Km, this study
Method: as §1, §2

[6] = biological target: T1, OCT2; assay: Concentration-dependent uptake of model substrates, OCT2-overexpressing HEK293 cells; assay type: in vitro ADME; set-up: expressed in transfected cells; host or cells: HEK293; settings: vmax over Km, this study
Method: as §1, §2

[7] = biological target: T4, NET (Homo sapiens, UniProt P23975); assay: Concentration-dependent MPP+ uptake, NET-overexpressing HEK293 cells; assay type: in vitro ADME; settings: this study
T4 construct: expressed in transfected cells; host or cells: HEK293
T4 sequence (P23975 whole entry): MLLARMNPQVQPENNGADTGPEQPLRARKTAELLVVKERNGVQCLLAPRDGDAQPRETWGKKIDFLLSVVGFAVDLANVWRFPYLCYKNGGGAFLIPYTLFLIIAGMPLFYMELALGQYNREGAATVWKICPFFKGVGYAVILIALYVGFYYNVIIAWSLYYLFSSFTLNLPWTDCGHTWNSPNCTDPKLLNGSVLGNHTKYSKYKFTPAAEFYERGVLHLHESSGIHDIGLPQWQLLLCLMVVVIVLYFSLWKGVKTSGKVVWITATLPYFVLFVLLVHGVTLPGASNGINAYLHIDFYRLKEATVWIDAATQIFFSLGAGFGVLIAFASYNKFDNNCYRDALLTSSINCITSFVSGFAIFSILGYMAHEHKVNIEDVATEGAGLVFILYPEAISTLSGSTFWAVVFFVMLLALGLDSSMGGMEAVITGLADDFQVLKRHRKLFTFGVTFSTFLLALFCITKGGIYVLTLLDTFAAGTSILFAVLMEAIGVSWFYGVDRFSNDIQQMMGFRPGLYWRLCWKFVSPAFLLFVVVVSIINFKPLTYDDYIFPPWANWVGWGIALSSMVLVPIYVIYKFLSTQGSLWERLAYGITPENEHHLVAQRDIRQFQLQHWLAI
Method: as §1, §2

[8] = biological target: T5, DAT (Homo sapiens, UniProt Q01959); assay: Concentration-dependent MPP+ uptake, DAT-overexpressing HEK293 cells; assay type: in vitro ADME; settings: this study
T5 construct: expressed in transfected cells; host or cells: HEK293
T5 sequence (Q01959 whole entry): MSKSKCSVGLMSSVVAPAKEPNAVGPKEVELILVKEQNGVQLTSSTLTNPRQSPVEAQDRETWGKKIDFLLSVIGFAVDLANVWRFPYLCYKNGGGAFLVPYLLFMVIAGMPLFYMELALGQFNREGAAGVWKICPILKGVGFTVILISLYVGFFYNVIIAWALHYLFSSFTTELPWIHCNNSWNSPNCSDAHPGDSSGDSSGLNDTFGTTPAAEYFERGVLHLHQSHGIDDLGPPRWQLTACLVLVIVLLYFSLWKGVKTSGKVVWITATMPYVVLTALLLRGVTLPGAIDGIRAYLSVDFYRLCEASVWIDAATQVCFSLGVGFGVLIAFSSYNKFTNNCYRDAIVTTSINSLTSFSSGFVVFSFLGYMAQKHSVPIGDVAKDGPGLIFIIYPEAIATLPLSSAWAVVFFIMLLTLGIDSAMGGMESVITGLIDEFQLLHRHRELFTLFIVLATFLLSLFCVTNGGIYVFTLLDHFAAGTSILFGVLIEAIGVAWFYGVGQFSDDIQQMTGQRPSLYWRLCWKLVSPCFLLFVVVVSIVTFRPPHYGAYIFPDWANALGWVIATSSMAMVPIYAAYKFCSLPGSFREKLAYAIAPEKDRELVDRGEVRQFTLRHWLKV
Method: as §1, §2

[9] = biological target: T6, SERT (Homo sapiens, UniProt P31645); assay: Concentration-dependent MPP+ uptake, SERT-overexpressing HEK293 cells; assay type: in vitro ADME; settings: this study
T6 construct: expressed in transfected cells; host or cells: HEK293
T6 sequence (P31645 whole entry): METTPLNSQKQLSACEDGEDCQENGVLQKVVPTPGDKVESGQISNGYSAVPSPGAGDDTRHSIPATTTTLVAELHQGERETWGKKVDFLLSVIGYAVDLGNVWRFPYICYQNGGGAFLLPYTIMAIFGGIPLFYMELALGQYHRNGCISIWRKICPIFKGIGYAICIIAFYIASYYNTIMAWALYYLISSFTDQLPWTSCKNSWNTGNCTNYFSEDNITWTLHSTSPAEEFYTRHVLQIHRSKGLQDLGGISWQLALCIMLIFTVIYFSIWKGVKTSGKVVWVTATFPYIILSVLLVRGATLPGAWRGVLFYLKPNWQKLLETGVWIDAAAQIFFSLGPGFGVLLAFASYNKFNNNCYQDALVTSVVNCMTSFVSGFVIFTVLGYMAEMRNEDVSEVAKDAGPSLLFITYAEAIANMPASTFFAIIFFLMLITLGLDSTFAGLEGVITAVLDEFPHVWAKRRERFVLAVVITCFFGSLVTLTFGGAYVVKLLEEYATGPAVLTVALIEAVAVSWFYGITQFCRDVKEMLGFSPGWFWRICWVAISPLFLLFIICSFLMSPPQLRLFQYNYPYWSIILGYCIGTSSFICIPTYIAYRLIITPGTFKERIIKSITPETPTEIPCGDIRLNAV
Method: as §1, §2

[10] = oral administration, cited from earlier work
[11] = OCT2, 20 μM inhibitor, 2 μM ASP+, 5 min
[12] = OCT2, 20 μM inhibitor, 2 μM N-ethyllidocaine, 5 min
[13] = 2 μM ASP+, mean of three experiments

CCC(CO)NCCNC(CC)CO [(S,S)-Ethambutol]
ASP+ inhibition [%] [1, 11]: 38.8%
N-Ethyllidocaine inhibition [%] [1, 12]: 10.0%
(S)-Zolmitriptan inhibition [%] ([2]; OCT3, 2 μM (S)-zolmitriptan): -1.3%
ASP+ inhibition [%] ([2]; OCT3, 2 μM ASP+): 3.7%
Clint ± SEM [3]: 16.9
ASP+ inhibition [%] [4, 13]: 5.5%
Sumatriptan inhibition [%] ([4]; 2 μM sumatriptan): 17.8%
Clint ± SEM [5]: 14.1
Clint ± SEM [6]: 36.6

C[n+]1ccc(-c2ccccc2)cc1 [MPP+, 1-methyl-4-phenylpyridinium]
vmax ± SEM [pmol × mg Protein−1 × min−1] [7]: 381 pmol × mg Protein−1 × min−1
Km ([7]; read-out: Km ± SEM): 2.5 µM
Clint ± SEM ([7]; vmax over Km): 152
vmax ± SEM [pmol × mg Protein−1 × min−1] [8]: 2107 pmol × mg Protein−1 × min−1
Km ([8]; read-out: Km ± SEM): 20.1 µM
Clint ± SEM ([8]; vmax over Km): 104
vmax ± SEM [pmol × mg Protein−1 × min−1] [9]: 627 pmol × mg Protein−1 × min−1
Km ([9]; read-out: Km ± SEM): 21.1 µM
Clint ± SEM ([9]; vmax over Km): 29.7

CN(C)CCC[C@@]1(c2ccc(F)cc2)OCc2cc(C#N)ccc21 [(S)-Citalopram]
IC50 [1]: 10.7 µM
inhibition at 5 min, 20 μM ([1]; human, OCT2-overexpressing HEK293 cells, pH 7.4, probe (S,S)-ethambutol (2 μM), (S,S)-Ethambutol inhibition [%], OCT2, 20 μM inhibitor, 2 μM (S,S)-ethambutol, 5 min): -9.7%
inhibition at 5 min, 20 μM ([1]; human, OCT2-overexpressing HEK293 cells, pH 7.4, probe ASP+ (2 μM), ASP+ inhibition [%], OCT2, 20 μM inhibitor, 2 μM ASP+, 5 min): 68.6%
inhibition at 5 min, 20 μM ([1]; human, OCT2-overexpressing HEK293 cells, pH 7.4, probe N-ethyllidocaine (2 μM), N-Ethyllidocaine inhibition [%], OCT2, 20 μM inhibitor, 2 μM N-ethyllidocaine, 5 min): 26.5%
inhibition at 20 µM ([2]; HEK293, 5 min, read-out: (S)-Zolmitriptan inhibition [%], OCT3, 2 μM (S)-zolmitriptan): 19.2%
inhibition at 20 µM ([2]; HEK293, 5 min, read-out: (S,S)-Ethambutol inhibition [%], OCT3, 2 μM (S,S)-ethambutol): 31.7%
inhibition at 20 µM ([2]; HEK293, OCT3, 2 μM ASP+, read-out: ASP+ inhibition [%]): 10.9%
Imax ([10]; citalopram, multiple doses (40 mg, once daily for 21 d)): 0.154 µM
inhibition at 5 min, 20 μM ([4]; pH 7.4, probe (S,S)-ethambutol (2 μM), (S,S)-Ethambutol inhibition [%], 2 μM (S,S)-ethambutol): 80.1%
inhibition at 5 min, 20 μM ([4]; pH 7.4, probe ASP+ (2 μM), 2 μM ASP+, mean of three experiments, read-out: ASP+ inhibition [%]): 37.2%
inhibition at 5 min, 20 μM ([4]; pH 7.4, probe sumatriptan (2 μM), 2 μM sumatriptan, read-out: Sumatriptan inhibition [%]): 77.6%

CCN1CCC[C@H]1CNC(=O)c1cc(S(=O)(=O)CC)c(N)cc1OC [(S)-Amisulpride]
IC50 [1]: 29.8 µM
(S,S)-Ethambutol inhibition [%] ([1]; OCT2, 20 μM inhibitor, 2 μM (S,S)-ethambutol, 5 min): -13.2%
ASP+ inhibition [%] [1, 11]: 38.0%
N-Ethyllidocaine inhibition [%] [1, 12]: 1.9%
selectivity ratio at 5 min ([1]; human, OCT2-overexpressing HEK293 cells, pH 7.4): 3.2
(S)-Zolmitriptan inhibition [%] ([2]; OCT3, 2 μM (S)-zolmitriptan): 46.0%
(S,S)-Ethambutol inhibition [%] ([2]; OCT3, 2 μM (S,S)-ethambutol): 73.1%
ASP+ inhibition [%] ([2]; OCT3, 2 μM ASP+): 33.7%
Imax ([10]; amisulpride, single dose (50 mg)): 0.182 µM
(S,S)-Ethambutol inhibition [%] ([4]; 2 μM (S,S)-ethambutol): 51.7%
ASP+ inhibition [%] [4, 13]: 23.5%
Sumatriptan inhibition [%] ([4]; 2 μM sumatriptan): 15.2%

From publication PMC10698726 (Molecular Pharmaceutics, 2023)
